Measured values: the METLIN SMRT retention time set (Domingo-Almenara et al. 2019)

Assay: gradient 5% acetonitrile 3 min, to 50% in 2 min, to 85% in 15 min, held 3 min, 100 µL/min
Settings: column: Zorbax Extend-C18 2.1 x 50 mm; eluents: water / acetonitrile, 0.1% formic acid
Outline: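 The mobile phases were water and acetonitrile, each with 0.1% formic acid, pumped at 100 μL/min through a Zorbax Extend-C18 column (2.1 × 50 mm, 1.8 μm). Pure standards were injected as mixtures of ~100 molecules and detected by a quadrupole time-of-flight mass spectrometer in positive and negative ionization mode. Retention time came from computationally picked adduct peaks, each inspected by hand.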

Compound | RP-LC retention time [s]
CC(C)(C)NC(=O)Nc1nnc(SCc2c(F)cccc2Cl)s1 | 946
COCCN1C(=O)CCc2cc(NS(=O)(=O)c3cc(C)cc(C)c3)ccc21 | 816
CC1=C(c2ccc(C)cc2)S(=O)(=O)N=C1N1CCCN(C(=O)NCC(C)C)CC1 | 822
O=C(Cn1cccc1-c1nnc(C2CCC2)o1)NCc1ccccc1Cl | 907
CC(C)Oc1ccc(-c2noc(Cn3ccn(-c4ccc(Cl)cc4)c(=O)c3=O)n2)cc1 | 973
CCOCCCNC(=O)c1c2c(cn(-c3ccc(Cl)cc3)c1=O)C(=O)CC(C)(C)C2 | 931
CC(C(=O)N1CCN(c2ccccn2)CC1)n1ccc2cc(S(=O)(=O)N3CCCCCC3)ccc21 (centres undefined) | 738
O=S(=O)(c1cccn2c(SCc3ccccc3Cl)nnc12)N1CCCC1 | 880
COc1ccc(NS(=O)(=O)c2cccc(-c3nc(-c4ccccc4)no3)c2)cc1OC | 1060
CC(C)NC(=O)CN1CCN(C(=O)c2sc3ncccc3c2-n2cccc2)CC1 | 607
COCCCN1CN=C(Nc2nc(C)c3cccc(OC)c3n2)NC1 | 615
Cc1cc(C)n(Cc2ccc(C(=O)N3CCN(c4cc(=O)n(C)c(=O)n4C)CC3)o2)n1 | 629
O=C(O)c1cccn2c(=O)c3cc(F)ccc3nc12 | 681
CN1[C@@H]2CC[C@H]1CC(OC(=O)C(CO)c1ccccc1)C2 (some centres undefined) | 613
CCOC(=O)c1ccc(NC(=O)Cc2csc3nc(-c4ccc(OC)c(OC)c4)cn23)cc1 | 756
Cc1cnn(Cc2nc(-c3ccc(NC(=O)Cc4ccccc4C)cc3)oc2C)c1 | 954
CCOc1ccc(NC(=O)c2c(C)oc3nc(C)nc(N4CCCC4)c23)cc1 | 788
CCOC(=O)N1CCc2c(sc(NC(=O)c3cn(C)nc3OC)c2C#N)C1 | 776
CCN(CC)CCOC(=O)C(c1ccccc1)C1CCCCC1 (centres undefined) | 882
CC1CCCCN1CCNC(=O)CCCn1c(=O)c2cccn2c2ccc(F)cc21 (centres undefined) | 641
CN(CC1CCOCC1)S(=O)(=O)Cc1ccccc1F | 786
CCCCCn1c(=O)c2ccccc2n(Cc2nc(-c3ccccc3OCC)no2)c1=O | 1250
Cc1cccc(C(=O)Nc2c(C(=O)N3CCN(c4ccccn4)CC3)[nH]c3ccccc23)c1 | 613

Compound | RP-LC retention time [s]
Cn1nccc1-c1cccc(-c2noc(-c3cccc(NC(=O)c4ccco4)c3)n2)c1 | 991
O=C(CSc1nccc(N2CCCC2)n1)N1CCN(c2ccccc2F)CC1 | 677
NS(=O)(=O)c1ccc(NC(=O)CSc2ccc3ccccc3n2)cc1 | 736
O=C(c1cc(F)ccc1F)N1CCCC1c1nc(-c2ccc(F)cc2)no1 (centres undefined) | 1030
Cc1cnc(C(=O)N2CCC(F)(F)C(COCC3CC3)C2)cn1 (centres undefined) | 794
COc1ccc(C)cc1NC(=O)NC1CCN(c2ccc(F)cc2)C1=O (centres undefined) | 855
CCn1cc(-c2nc(C(=O)Nc3cccc(OC)c3)cs2)c2cccnc21 | 1060
COCCNC(=O)CS(=O)Cc1cnn(-c2ccccc2)c1-n1cccc1 (centres undefined) | 678
Cc1ccc(C)c(NC(=O)N2C[C@@H](F)C[C@H]2C(=O)N2CCCCC2)c1 | 730
CCN1CCCC1CNc1onc(-c2ccc(Cl)cc2)c1C(=O)OC (centres undefined) | 699
CC(C)Cn1c(=O)c(N2CCN(C(=O)NCc3ccccc3)CC2)nc2ccncc21 | 572
CCOC(=O)C1CCC(CNC(=O)N2CCN(Cc3nc4ccccc4o3)CC2)CC1 (centres undefined) | 676
O=C1CCCc2cc(S(=O)(=O)N3CCC(C(=O)NCc4cccs4)CC3)ccc2N1 | 695
CCCn1cc(CCNS(=O)(=O)c2ccc(OC)c(Cl)c2)c2cccnc21 | 865
COc1cccc(C2CC(c3ccc(Cl)cc3)=NC3(CCN(C(C)=O)CC3)N2)c1O (centres undefined) | 686
COc1ccc2c(ccn2CC(=O)N[C@@H](C)C(=O)O)c1 | 665
COc1ccc(-c2nnc(COc3cccc(NC(=O)c4ccoc4)c3)o2)cc1 | 866
Cc1ccc(N2N=C(C(=O)N3CCN(C(C)C)CC3)S(=O)(=O)c3cccnc32)cc1 | 649
COc1ccc(C)cc1NC(=O)Cn1nc2cc(C)nc(Nc3ccc(C)cc3)n2c1=O | 1150
O=C(CN1CCN(Cc2ccccc2)C1=O)NC1CC1 | 641
Cc1nn(C)cc1S(=O)(=O)Nc1ccc2c(c1)OCCO2 | 641
CC1=C(c2ccc(C)c(C)c2)S(=O)(=O)N=C1N1CCCN(C(=O)C2CC2)CC1 | 793
CCc1ccc(NC(=O)Cc2nnc3cc(-c4nc(C)no4)ccn23)cc1 | 780

Compound | RP-LC retention time [s]
CCOC(=O)c1noc2ncnc(Nc3ccc(C)cc3)c12 | 1010
CCc1ccc(C2=C(C)C(N3CCCN(C(=O)c4ccsc4)CC3)=NS2(=O)=O)cc1 | 859
CC(C)N1C(=O)c2cccnc2Sc2cc(NC(=O)c3ccc(Cl)cc3)ccc21 | 964
Cn1cc(-c2cc3n(n2)CCCN3C(=O)CCC(=O)NC2CCCCCC2)c2ccccc21 | 869
O=C(Nc1ccc2c(c1)OCCO2)N1CCc2nn(CC3CC3)c(=O)n2CC1 | 703
COc1ccc(-c2noc(CSc3nccn3-c3ccc(C)cc3)n2)cc1OC | 856
CCc1cc(=O)n(CC(=O)Nc2ccc3c(c2)OCCO3)c(N2CCOCC2)n1 | 681
CN(c1ccccc1)S(=O)(=O)c1ccc(C(=O)Nc2nnc(C3=COCCO3)o2)cc1 | 744
CCC(=O)N1CCN(Cc2nc3cc(NC(=O)C(C)C)ccc3n2C)CC1 | 584
Cc1nnc2ccc(N3CCC(C(=O)N4CCN(c5ncccn5)CC4)CC3)nn12 | 646
O=c1ccc(-c2ccc3c(c2)OCO3)nn1CCc1nc(-c2cccc(Cl)c2)no1 | 1010
COc1ccc(NC(=O)C2(CCO)CCN(c3ncccn3)C2)cn1 (centres undefined) | 706
Cc1ccccc1N1CCN(S(=O)(=O)c2cc3n(c2)CCCN(C)C3=O)CC1 | 813
COc1ccccc1CNS(=O)(=O)c1cccc(-c2nc(-c3ccccc3)no2)c1 | 1150
COc1nn(C)cc1C(=O)N1CCc2nc(NC(=O)c3ccco3)sc2C1 | 599
CCOC(=O)N1CCN(C(=O)c2ccc(S(=O)(=O)NCc3cccs3)o2)CC1 | 729
O=C(Cc1ccc(Cl)cc1)Nc1nc(-c2ccccc2)cs1 | 1020
CCN1CCN(CCNC(=O)c2sc3ncccc3c2-n2c(C)ccc2C)CC1 | 574
CCn1c(=O)sc2cc(S(=O)(=O)N3CCC(C(=O)NCc4cccc(C)c4)CC3)ccc21 | 932
O=C(CSc1nnc2ccc(-c3cccc([N+](=O)[O-])c3)nn12)c1cccs1 | 774
COc1ccc(Cl)cc1C(=O)NCC1(O)CCOCC1 | 622
CCCS(=O)(=O)c1nc2ccc(NS(=O)(=O)Cc3cc(C)ccc3C)cc2s1 | 1040
Cc1ccc(-n2nc(CO)c(C(=O)NC(C)C)n2)cc1C | 983

Compound | RP-LC retention time [s]
COC(=O)c1ccc2c(=O)n(-c3ccccc3)c(N3CCC(C(N)=O)CC3)nc2c1 | 693
COc1ccc(NC(=O)c2c(O)c3cccnc3n(-c3ccc(F)cc3)c2=O)cc1Cl | 1250
Cc1occc1C(=O)N[C@@H]1CN(S(C)(=O)=O)C[C@H]1CN(C)C | 573
Cc1nn(-c2ccccc2)c2sc(C(=O)Oc3ccc(F)cc3)cc12 | 1380
CCCOc1nc2ccccc2nc1N1CCCC(C(=O)NCc2ccc(Cl)cc2)C1 (centres undefined) | 1270
COc1ccc(-c2nc3ncccn3c2Nc2ccc(F)cc2)cc1 | 714
COc1ccc(OC)c(C(O)CN2CCN(c3ccc(C)cc3)CC2)c1 (centres undefined) | 653
Cc1nc(-c2cc(S(=O)(=O)NCc3ccc(Br)cc3)c(C)s2)cs1 | 1030
NCCC1CCN(C(=O)Nc2cccc(F)c2)CC1 | 595
COc1ccc(-c2noc(Cc3nnc(-c4ccc(Cl)cc4)o3)n2)cc1OC | 966
CCOC(=O)c1[nH]c(C)c(CCC(=O)N2CCC(C(=O)N3CCOCC3)CC2)c1C | 646
COc1cccc(-c2noc(Cc3nnc(-c4cccc(Cl)c4)o3)n2)c1OC | 1000
O=C(Cn1cccc(-c2nc(-c3ccc(F)cc3)no2)c1=O)NC1CCCC1 | 797
CN(CCc1noc(-c2ccccc2)n1)C(=O)Nc1ccc(F)cc1F | 858
Cc1c2c(nn1-c1ccc(SCc3ccccc3F)nn1)CCC2 | 1270
Cc1ccc(NC(=O)Cc2nnc(-c3cnccn3)o2)c(C)c1 | 700
CCC(C)NS(=O)(=O)c1cc(-c2nnc(-c3ccccc3)o2)ccc1OC (centres undefined) | 955
O=C(Nc1ccc2c(c1)OCCO2)NC1CCN(c2ccc(F)cc2)C1=O (centres undefined) | 762
COc1cccc(NC(=O)Cn2nc3cc(C)nc(Nc4ccc(C)c(C)c4)n3c2=O)c1 | 1100
Cn1nnc2ccc(-c3noc(CNC(=O)c4cccs4)n3)cc21 | 712
